Laboratory results reported in ChEMBL document CHEMBL3797052 (Eur J Med Chem, 2016).

test system: NCI-H460; assay: Antiproliferative activity against human NCI-H460 cells assessed as cell growth at 10^-8 M after 48 hrs by sulforhodamine B assay; format: functional; conditions: NCI-H460, 48 h, read-out: Activity

Structure (SMILES) | growth at 0.01 µM
CNC(=O)c1cc(Oc2ccc3nc(NC(=O)Nc4ccc(Cl)c(Cl)c4)sc3c2)ccn1 | 104%

test system: not listed separately; assay: Antiproliferative activity against human HCT116 cells assessed as cell growth at 10^-6 M after 48 hrs by sulforhodamine B assay; format: functional; conditions: HCT-116, 48 h, read-out: Activity

Structure (SMILES) | growth at 1 µM
CNC(=O)c1cc(Oc2ccc3nc(NC(=O)Nc4ccc(Cl)c(Cl)c4)sc3c2)ccn1 | 88%

test system: not listed separately; assay: Antiproliferative activity against human RXF393 cells assessed as cell growth at 10^-7 M after 48 hrs by sulforhodamine B assay; format: functional; conditions: RXF 393, 48 h, read-out: Activity

Structure (SMILES) | growth at 0.1 µM
CNC(=O)c1cc(Oc2ccc3nc(NC(=O)Nc4ccc(Cl)c(Cl)c4)sc3c2)ccn1 | 101%

test system: not listed separately; assay: Antiproliferative activity against human Caki1 cells assessed as cell growth at 10^-4 M after 48 hrs by sulforhodamine B assay; format: functional; conditions: CAKI-1, 48 h, read-out: Activity

Structure (SMILES) | growth at 100 µM
CNC(=O)c1cc(Oc2ccc3nc(NC(=O)Nc4ccc(Cl)c(Cl)c4)sc3c2)ccn1 | -17%

test system: not listed separately; assay: Antiproliferative activity against human COLO205 cells assessed as cell growth at 10^-4 M after 48 hrs by sulforhodamine B assay; format: functional; conditions: COLO 205, 48 h, read-out: Activity

Structure (SMILES) | growth at 100 µM
CNC(=O)c1cc(Oc2ccc3nc(NC(=O)Nc4ccc(Cl)c(Cl)c4)sc3c2)ccn1 | 26%

test system: U-251; assay: Antiproliferative activity against human U251 cells assessed as cell growth at 10^-6 M after 48 hrs by sulforhodamine B assay; format: functional; conditions: U-251, 48 h, read-out: Activity

Structure (SMILES) | growth at 1 µM
CNC(=O)c1cc(Oc2ccc3nc(NC(=O)Nc4ccc(Cl)c(Cl)c4)sc3c2)ccn1 | 98%

test system: MDA-MB-468; assay: Antiproliferative activity against human MDA-MB-468 cells assessed as growth inhibition after 48 hrs by sulforhodamine B assay; format: functional; conditions: MDA-MB-468, 48 h

Structure (SMILES) | GI50 | TGI
CNC(=O)c1cc(Oc2ccc3nc(NC(=O)Nc4ccc(Cl)c(Cl)c4)sc3c2)ccn1 | 1.97 µM | 5.09 µM

same assay, conditions: MDA-MB-468, 48 h, read-out: LC50 (the source's name)

Structure (SMILES) | CC50
CNC(=O)c1cc(Oc2ccc3nc(NC(=O)Nc4ccc(Cl)c(Cl)c4)sc3c2)ccn1 | > 100 µM

test system: HT-29; assay: Antiproliferative activity against human HT-29 cells assessed as growth inhibition after 48 hrs by sulforhodamine B assay; format: functional; conditions: HT-29, 48 h

Structure (SMILES) | GI50 | TGI
CNC(=O)c1cc(Oc2ccc3nc(NC(=O)Nc4ccc(Cl)c(Cl)c4)sc3c2)ccn1 | 2.16 µM | 4.31 µM

test system: not listed separately; assay: Antiproliferative activity against human PC3 cells assessed as cell growth at 10^-4 M after 48 hrs by sulforhodamine B assay; format: functional; conditions: PC-3, 48 h, read-out: Activity

Structure (SMILES) | growth at 100 µM
CNC(=O)c1cc(Oc2ccc3nc(NC(=O)Nc4ccc(Cl)c(Cl)c4)sc3c2)ccn1 | -50%

test system: not listed separately; assay: Antiproliferative activity against human BT549 cells assessed as cell growth at 10^-6 M after 48 hrs by sulforhodamine B assay; format: functional; conditions: BT-549, 48 h, read-out: Activity

Structure (SMILES) | growth at 1 µM
CNC(=O)c1cc(Oc2ccc3nc(NC(=O)Nc4ccc(Cl)c(Cl)c4)sc3c2)ccn1 | 102%

test system: SN12C; assay: Antiproliferative activity against human SN12C cells assessed as cell growth at 10^-8 M after 48 hrs by sulforhodamine B assay; format: functional; conditions: read-out: Activity

Structure (SMILES) | growth at 0.01 µM
CNC(=O)c1cc(Oc2ccc3nc(NC(=O)Nc4ccc(Cl)c(Cl)c4)sc3c2)ccn1 | 102%

test system: not listed separately; assay: Antiproliferative activity against human PC3 cells assessed as cell growth at 10^-6 M after 48 hrs by sulforhodamine B assay; format: functional; conditions: PC-3, 48 h, read-out: Activity

Structure (SMILES) | growth at 1 µM
CNC(=O)c1cc(Oc2ccc3nc(NC(=O)Nc4ccc(Cl)c(Cl)c4)sc3c2)ccn1 | 92%

test system: NCI-H23; assay: Antiproliferative activity against human NCI-H23 cells assessed as cell growth at 10^-8 M after 48 hrs by sulforhodamine B assay; format: functional; conditions: NCI-H23, 48 h, read-out: Activity

Structure (SMILES) | growth at 0.01 µM
CNC(=O)c1cc(Oc2ccc3nc(NC(=O)Nc4ccc(Cl)c(Cl)c4)sc3c2)ccn1 | 95%

test system: Malme-3M; assay: Antiproliferative activity against human MALME-3M cells assessed as cell growth at 10^-6 M after 48 hrs by sulforhodamine B assay; format: functional; conditions: read-out: Activity

Structure (SMILES) | growth at 1 µM
CNC(=O)c1cc(Oc2ccc3nc(NC(=O)Nc4ccc(Cl)c(Cl)c4)sc3c2)ccn1 | 76%

test system: not listed separately; assay: Antiproliferative activity against human IGROV1 cells assessed as growth inhibition after 48 hrs by sulforhodamine B assay; format: functional; conditions: IGROV-1, 48 h

Structure (SMILES) | GI50 | TGI
CNC(=O)c1cc(Oc2ccc3nc(NC(=O)Nc4ccc(Cl)c(Cl)c4)sc3c2)ccn1 | 2.55 µM | 6.75 µM

same assay, conditions: IGROV-1, 48 h, read-out: LC50 (the source's name)

Structure (SMILES) | CC50
CNC(=O)c1cc(Oc2ccc3nc(NC(=O)Nc4ccc(Cl)c(Cl)c4)sc3c2)ccn1 | > 100 µM

test system: K562; assay: Antiproliferative activity against human K562 cells assessed as cell growth at 10^-6 M after 48 hrs by sulforhodamine B assay; format: functional; conditions: K562, 48 h, read-out: Activity

Structure (SMILES) | growth at 1 µM
CNC(=O)c1cc(Oc2ccc3nc(NC(=O)Nc4ccc(Cl)c(Cl)c4)sc3c2)ccn1 | 98%

test system: T47D; assay: Antiproliferative activity against human T47D cells assessed as cell growth at 10^-6 M after 48 hrs by sulforhodamine B assay; format: functional; conditions: read-out: Activity

Structure (SMILES) | growth at 1 µM
CNC(=O)c1cc(Oc2ccc3nc(NC(=O)Nc4ccc(Cl)c(Cl)c4)sc3c2)ccn1 | 106%

test system: SK-MEL-28; assay: Antiproliferative activity against human SK-MEL-28 cells assessed as cell growth at 10^-7 M after 48 hrs by sulforhodamine B assay; format: functional; conditions: SK-MEL-28, 48 h, read-out: Activity

Structure (SMILES) | growth at 0.1 µM
CNC(=O)c1cc(Oc2ccc3nc(NC(=O)Nc4ccc(Cl)c(Cl)c4)sc3c2)ccn1 | 100%

test system: not listed separately; assay: Antiproliferative activity against human LOXIMVI cells assessed as growth inhibition after 48 hrs by sulforhodamine B assay; format: functional; conditions: LOX IMVI

Structure (SMILES) | GI50 | TGI
CNC(=O)c1cc(Oc2ccc3nc(NC(=O)Nc4ccc(Cl)c(Cl)c4)sc3c2)ccn1 | 1.82 µM | 3.52 µM

same assay, conditions: LOX IMVI, read-out: LC50 (the source's name)

Structure (SMILES) | CC50
CNC(=O)c1cc(Oc2ccc3nc(NC(=O)Nc4ccc(Cl)c(Cl)c4)sc3c2)ccn1 | 6.82 µM

test system: not listed separately; assay: Antiproliferative activity against human UO31 cells assessed as cell growth at 10^-4 M after 48 hrs by sulforhodamine B assay; format: functional; conditions: UO-31, 48 h, read-out: Activity

Structure (SMILES) | growth at 100 µM
CNC(=O)c1cc(Oc2ccc3nc(NC(=O)Nc4ccc(Cl)c(Cl)c4)sc3c2)ccn1 | -72%

test system: not listed separately; assay: Antiproliferative activity against human HCT15 cells assessed as cell growth at 10^-7 M after 48 hrs by sulforhodamine B assay; format: functional; conditions: HCT-15, 48 h, read-out: Activity

Structure (SMILES) | growth at 0.1 µM
CNC(=O)c1cc(Oc2ccc3nc(NC(=O)Nc4ccc(Cl)c(Cl)c4)sc3c2)ccn1 | 97%

test system: not listed separately; assay: Antiproliferative activity against human HL-60(TB) cells assessed as cell growth at 10^-7 M after 48 hrs by sulforhodamine B assay; format: functional; conditions: HL-60, 48 h, read-out: Activity

Structure (SMILES) | growth at 0.1 µM
CNC(=O)c1cc(Oc2ccc3nc(NC(=O)Nc4ccc(Cl)c(Cl)c4)sc3c2)ccn1 | 102%

test system: not listed separately; assay: Antiproliferative activity against human RXF393 cells assessed as cell growth at 10^-8 M after 48 hrs by sulforhodamine B assay; format: functional; conditions: RXF 393, 48 h, read-out: Activity

Structure (SMILES) | growth at 0.01 µM
CNC(=O)c1cc(Oc2ccc3nc(NC(=O)Nc4ccc(Cl)c(Cl)c4)sc3c2)ccn1 | 99%

test system: NCI-H322M; assay: Antiproliferative activity against human NCI-H322M cells assessed as cell growth at 10^-6 M after 48 hrs by sulforhodamine B assay; format: functional; conditions: read-out: Activity

Structure (SMILES) | growth at 1 µM
CNC(=O)c1cc(Oc2ccc3nc(NC(=O)Nc4ccc(Cl)c(Cl)c4)sc3c2)ccn1 | 84%

test system: not listed separately; assay: Antiproliferative activity against human BT549 cells assessed as growth inhibition after 48 hrs by sulforhodamine B assay; format: functional; conditions: BT-549, 48 h

Structure (SMILES) | GI50 | TGI
CNC(=O)c1cc(Oc2ccc3nc(NC(=O)Nc4ccc(Cl)c(Cl)c4)sc3c2)ccn1 | 4.88 µM | > 100 µM

same assay, conditions: BT-549, 48 h, read-out: LC50 (the source's name)

Structure (SMILES) | CC50
CNC(=O)c1cc(Oc2ccc3nc(NC(=O)Nc4ccc(Cl)c(Cl)c4)sc3c2)ccn1 | > 100 µM

test system: not listed separately; assay: Antiproliferative activity against human SF539 cells assessed as cell growth at 10^-7 M after 48 hrs by sulforhodamine B assay; format: functional; conditions: SF-539, 48 h, read-out: Activity

Structure (SMILES) | growth at 0.1 µM
CNC(=O)c1cc(Oc2ccc3nc(NC(=O)Nc4ccc(Cl)c(Cl)c4)sc3c2)ccn1 | 100%

test system: ACHN; assay: Antiproliferative activity against human ACHN cells assessed as cell growth at 10^-4 M after 48 hrs by sulforhodamine B assay; format: functional; conditions: read-out: Activity

Structure (SMILES) | growth at 100 µM
CNC(=O)c1cc(Oc2ccc3nc(NC(=O)Nc4ccc(Cl)c(Cl)c4)sc3c2)ccn1 | -18%

test system: not listed separately; assay: Antiproliferative activity against human TK10 cells assessed as cell growth at 10^-6 M after 48 hrs by sulforhodamine B assay; format: functional; conditions: TK-10, 48 h, read-out: Activity

Structure (SMILES) | growth at 1 µM
CNC(=O)c1cc(Oc2ccc3nc(NC(=O)Nc4ccc(Cl)c(Cl)c4)sc3c2)ccn1 | 113%

test system: not listed separately; assay: Antiproliferative activity against human UACC62 cells assessed as cell growth at 10^-8 M after 48 hrs by sulforhodamine B assay; format: functional; conditions: UACC-62, 48 h, read-out: Activity

Structure (SMILES) | growth at 0.01 µM
CNC(=O)c1cc(Oc2ccc3nc(NC(=O)Nc4ccc(Cl)c(Cl)c4)sc3c2)ccn1 | 98%

test system: NCI-H460; assay: Antiproliferative activity against human NCI-H460 cells assessed as cell growth at 10^-6 M after 48 hrs by sulforhodamine B assay; format: functional; conditions: NCI-H460, 48 h, read-out: Activity

Structure (SMILES) | growth at 1 µM
CNC(=O)c1cc(Oc2ccc3nc(NC(=O)Nc4ccc(Cl)c(Cl)c4)sc3c2)ccn1 | 107%

test system: 786-0; assay: Antiproliferative activity against human 786-0 cells assessed as cell growth at 10^-8 M after 48 hrs by sulforhodamine B assay; format: functional; conditions: 786-0, 48 h, read-out: Activity

Structure (SMILES) | growth at 0.01 µM
CNC(=O)c1cc(Oc2ccc3nc(NC(=O)Nc4ccc(Cl)c(Cl)c4)sc3c2)ccn1 | 95%

test system: not listed separately; assay: Antiproliferative activity against human OVCAR4 cells assessed as cell growth at 10^-7 M after 48 hrs by sulforhodamine B assay; format: functional; conditions: OVCAR-4, 48 h, read-out: Activity

Structure (SMILES) | growth at 0.1 µM
CNC(=O)c1cc(Oc2ccc3nc(NC(=O)Nc4ccc(Cl)c(Cl)c4)sc3c2)ccn1 | 100%

test system: not listed separately; assay: Antiproliferative activity against human SKOV3 cells assessed as cell growth at 10^-4 M after 48 hrs by sulforhodamine B assay; format: functional; conditions: SK-OV-3, 48 h, read-out: Activity

Structure (SMILES) | growth at 100 µM
CNC(=O)c1cc(Oc2ccc3nc(NC(=O)Nc4ccc(Cl)c(Cl)c4)sc3c2)ccn1 | -69%

test system: HT-29; assay: Antiproliferative activity against human HT-29 cells assessed as cell growth at 10^-6 M after 48 hrs by sulforhodamine B assay; format: functional; conditions: HT-29, 48 h, read-out: Activity

Structure (SMILES) | growth at 1 µM
CNC(=O)c1cc(Oc2ccc3nc(NC(=O)Nc4ccc(Cl)c(Cl)c4)sc3c2)ccn1 | 106%

test system: SK-MEL-2; assay: Antiproliferative activity against human SK-MEL-2 cells assessed as cell growth at 10^-8 M after 48 hrs by sulforhodamine B assay; format: functional; conditions: SK-MEL-2, 48 h, read-out: Activity

Structure (SMILES) | growth at 0.01 µM
CNC(=O)c1cc(Oc2ccc3nc(NC(=O)Nc4ccc(Cl)c(Cl)c4)sc3c2)ccn1 | 115%
